Experimental findings from patent publication US20110183942A1, “Methods and Compositions for Treating Alzheimer's Disease” (UNIVERSITY OF MEDICINE AND DENTISTRY OF NEW JERSEY, priority 2008, published 2011) are described below.

For experiment [1], the system named is Arc protein in DIV14 forebrain neurons. Kind of experiment: Western blot of Arc protein in cultured forebrain neurons. It is filed as cell-based, mouse. The note with it: for level of Arc protein, low dose cycloheximide: 10 min. As for the experimental part: For biochemistry experiments, 0.4×10^6 neurons were added to each well of a 6-well plate (Coming) coated with poly-L-lysine. Growth medium consisted of NeuroBasal (Invitrogen) supplemented with 1% fetal bovine serum (Hyclone), 2% B27, 1% Glutamax (Invitrogen), 100 U/mL penicillin, and 100 U/mL streptomycin (Invitrogen). Neurons were fed twice per week with glia conditioned growth medium.
Transfected HEK293T cells or cultured neurons were treated with various drugs and then harvested in IP buffer supplemented with 1% Triton X-100 buffer and Complete™ EDTA-Free protease inhibitors. Soluble fractions were diluted with 4× SDS sample buffer.
The membrane was blocked with TBST (50 mM Tris, pH 7.5, with 150 mM NaCl, and 0.1% Tween-20) containing 5% non-fat milk for one hour at room temperature, followed by incubation with primary antibody in TBST buffer overnight at 4° C. After three washes with TBST buffer, membranes were incubated with HRP-conjugated anti-rabbit, or anti-mouse antibody in TBST for another hour. After three washes with TBST buffer, the membrane was treated with SuperSignal ECL substrate (Pierce) according to the manufacturer's protocol.
To reduce the background signal in the co-IP assay, HRP-conjugated HA or HPR conjugated myc antibody (Santa Cruz) was used when overexpressed proteins were tagged with HA or myc. […] Image J software (NIH) was used for quantification.

The test system of experiment [2] is surface AMPA receptor (GluR2/3, GluR1) in cultured neurons. Kind of experiment: Surface biotinylation assay of AMPA receptor subunits. It is filed as cell-based, mouse. The protocol:
For surface biotinylation, drug-treated cortical neurons were cooled on ice, washed twice with ice-cold PBS++ (1× PBS, 1 mM CaCl2, 0.5 mM MgCl2) and then incubated with PBS++ containing 1 mg/ml Sulfo-NHS-SSBiotin (Pierce) for 30 min at 4° C. Unreacted biotin was quenched by washing cells three times with PBS++ containing 100 mM Glycine (pH 7.4) (briefly once and for 5 min twice). Cultures were harvested in RIPA buffer and sonicated. Homogenates were centrifuged at […] for 20 min at 4° C. Fifteen % of supernatant was saved as the total protein. […] Precipitates were washed with RIPA buffer three times (5 min each time). All procedures were done at 4° C.

Experiment [3] concerns hippocampal Schaffer collateral-CA1 synapses. Kind of experiment: Field recording of fEPSP (mGluR-LTD) in acute hippocampal slices. The following applies: for DHPG-LTD in the presence of high dose cycloheximide: cycloheximide 60 μM, t=105 min. It is filed as cell-based, mouse. As for the experimental part: For recording, slices were placed in a submersion recording chamber and perfused with 30° C. ACSF at a rate of 2 ml/min.
fEPSPs were recorded with extracellular recording electrodes (1.0 MΩ) filled with ACSF and placed in the stratum radiatum of area CA1. Synaptic responses were evoked by a 200-μsec current pulse to Schaffer collateral axons with a concentric bipolar tungsten stimulating electrode. Stable baseline responses were collected every 30 sec by using a stimulation intensity (10-30 μA) yielding 50-60% of the maximal fEPSP slope response.
mGluR-LTD was induced by a mGluR1/5 agonist, (R,S)-3,5-DHPG (Tocris), or by electrical stimulations. […] NMDAR dependent-LTD was induced by using 900 single pulses delivered at 1 Hz.

For experiment [4], the system named is global protein synthesis in cultured neurons. Kind of experiment: Metabolic labeling, incorporation of 35S methionine and cysteine into TCA precipitant. The following applies: 100 nM cycloheximide. It is filed as cell-based. As for the experimental part: To measure the incorporation of ^35S methionine and cysteine into new peptide, 30 μl protein labeling mix (Perkin Elmer) was added into 1.5 ml of regular culture medium (final 220 μCi/ml) for the time indicated in the figures. After washout once with ice-cold PBS, cells were lysed with 700 μl of RIPA buffer. After quantification of total amount of protein, equal amount of lysate (˜200 μl) was precipitated with 10% TCA.

In experiment [5] the test system is Arc protein in DIV14 hippocampal neurons. Kind of experiment: Arc immunocytochemistry in cultured hippocampal neurons. Format: cell-based, mouse. The note with it: emetine 10 ng/ml, 10 min. The protocol:
Immunocytochemistry of cultured neurons was performed as described (Shepherd et al., Neuron, 52, 475-484 (2006)). Briefly, DIV14 primary hippocampal neurons were fixed in fixation solution (4% paraformaldehyde, 4% sucrose containing 1× PBS) for 20 min at 4° C. and were permeabilized with 0.2% Triton X-100 in PBS for 10 min 4° C. Cells were then blocked for 1 hr at room temperature in 10% normal goat serum (NGS). Primary antibodies were diluted (1:250 of phospho-eEF2 antibody, 1:500 of PSD95, 1:300 for Arc) in 10% NGS and incubated with neurons for overnight at 4° C. Alexa 488, or Alexa 555-conjugated secondary antibodies (1:500; Molecular Probes) were diluted in 10% NGS and incubated at room temperature for 1 hr. Coverslips were mounted with PermaFluor containing DAPI (Invitrogen). All images were taken with same exposure and setting using Zeiss 510 Meta confocal microscope. Quantification of Arc levels was carried out using Image J software. For the measurement of dendritic Arc levels, average pixel intensity was measured in the primary dendrites 20 μm away from the soma.

Molecules are shown by their SMILES. Where “and” joins values, the source holds several entries; their conditions need not be identical. Equal entries are not always repeated. Entries after “also recorded” stand apart in the source; their conditions may differ. *1 amine or outer side, *2 acyl side, *3 side chain or, on linkers, in order; H or OH if unused. Where a SMILES comes first, the peptide text is derived from it. Bridges are numbered along the chain shown (N, C = ends). Roman numbers before positions name the chains, in order. [ ]: non-standard residue; d: D form. The star is where a group is joined. Actinocin(9to1) = Cc1c2oc3c(C)ccc(C(=O)[*:1])c3nc-2c(C(=O)[*:2])c(N)c1=O; NMeV = CN[C@H](C(=O)O)C(C)C; Cbz = O=C(OCc1ccccc1)*; Sar = CNCC(=O)O

As for `Cc1c2oc3c(C)ccc(C(=O)N[C@@H]4C(=O)N[C@H](C(C)C)C(=O)N5CCC[C@H]5C(=O)N(C)CC(=O)N(C)[C@@H](C(C)C)C(=O)O[C@@H]4C)c3nc-2c(C(=O)N[C@@H]2C(=O)N[C@H](C(C)C)C(=O)N3CCC[C@H]3C(=O)N(C)CC(=O)N(C)[C@@H](C(C)C)C(=O)O[C@@H]2C)c(N)c1=O` [Actinomycin D] (I: T[dV]P[Sar][NMeV] / II: T[dV]P[Sar][NMeV]; ester I:1-I:C, II:1-II:C; linker I:N-II:N via Actinocin(9to1)), the “effect on induction of Arc protein by DHPG (5 min)” value in experiment [1] is on record as “did not alter; also recorded: did not block”. In experiment [1] (ActD 10 μM, 1 hr), the “basal levels of Arc with transcription inhibitor” value is listed as “decreased the basal levels of Arc”.

As for `CC(C)C[C@@H](C=O)NC(=O)[C@H](CC(C)C)NC(=O)[C@H](CC(C)C)NC(=O)OCc1ccccc1` [MG132] (Cbz-Leu-Leu-Leu-aldehyde), in experiment [1] (MG132 10 μM, 1 hr), the “level of Arc protein with proteasome inhibitor” value is “increased the basal level of Arc protein; also recorded: increased the levels of Arc”.

As to `NC1=N[C@H](O)[C@H]2[C@H]3O[C@]4(O)O[C@@H]([C@@H](O)[C@@]2(N1)[C@@H]4O)[C@]3(O)CO` [TTX, tetrodotoxin], the “surface expression of GluR1” value in experiment [2] is “increased the surface expression of GluR1”.

With `C[C@@H]1C[C@@H]([C@H](O)CC2CC(=O)NC(=O)C2)C(=O)[C@@H](C)C1` [cycloheximide], in experiment [3], the “fEPSP slope, low dose cycloheximide + DHPG” value is 75.7±7.4 % of baseline and 69.0±2.6 % of baseline. Further, the “DHPG-LTD in the presence of high dose cycloheximide” value in experiment [3] (Fmr1 KO slices) is 72.3±4.8 % of baseline; in experiment [3] (WT (FVB) slices), 95.5±2.9 % of baseline. Further, the “baseline synaptic transmission, low dose cycloheximide without mGluR stimulation” value in experiment [3] (WT slices) is reported as 101.2±2.0%; in experiment [3] (eEF2K KO slices) it was 100.4±4.6%. Also, in experiment [4], the “total incorporation of 35S labeled methionine and cysteine into TCA precipitant” value is given as about 60%. The “effect on induction of Arc protein by DHPG (5 min)” value in experiment [1] was “blocked”. Further, in experiment [1] (>1 uM, WT and eEF2K KO neurons), the “induction of Arc, high dose cycloheximide” value was “did not induce Arc”. Further, the “level of Arc protein, low dose cycloheximide” value in experiment [1] (WT neurons, low dose (50-100 nM)) is “increased Arc protein”; in experiment [1] (WT neurons, low dose (50-100 nM), listed as CHX), “increased the level of Arc protein”; in experiment [1] (eEF2K KO neurons, 50 nM and 100 nM) it was “increased the level of Arc protein”.

On to `CC[C@H]1CN2CCc3cc(OC)c(OC)cc3[C@@H]2C[C@@H]1C[C@H]1NCCc2cc(OC)c(OC)cc21` [emetine], for which, in experiment [5], the “effect on rapid DHPG-induced increase of Arc (immunocytochemistry)” value was “blocked”.
